# Reference: patent US7691844B2, “Nonpeptide substituted spirobenzoazepines as vasopressin antagonists” (Ortho-McNeil Pharmaceutical, Inc., priority 2000, dated 2010)
# Key:
# V1a = V1a (Homo sapiens, UniProt P37288); experiment: In-vitro receptor binding assay (3H-arginine-8-vasopressin), V1a
# Description: (§1) (A) In-Vitro Binding Assay […] The reaction plates are allowed to sit at room temperature for one hour. The samples are filtered through Unifilter GF/C plates (presoaked in 0.3 polyethyleneimine). The plates are washed 5 times with cold physiological saline containing 0.05% Tween 20. After drying, the bottom of the filter plates are sealed and 0.025 ml of Microscint-20 is added to each filter. The top of the plate is sealed, and the plate is counted. Non-specific binding is determined by the addition of 1.25 μM […]-vasopressin in those wells. % Inh. is calculated as follows: […]
# human V2 receptor = human V2 receptor (Homo sapiens, UniProt P30518); experiment: In-vitro receptor binding assay (3H-arginine-8-vasopressin), V2; settings: for inhibition at 10 µM / inhibition at 1 µM: read-out: Receptor Binding V2 (% Inh. @ concentration in μM)
# Description: as §1
# [1] = @ 0.1 μM, read-out: Receptor Binding V1a (% Inh. @ concentration in μM)
# Sequence of human V2 receptor (P30518 whole entry): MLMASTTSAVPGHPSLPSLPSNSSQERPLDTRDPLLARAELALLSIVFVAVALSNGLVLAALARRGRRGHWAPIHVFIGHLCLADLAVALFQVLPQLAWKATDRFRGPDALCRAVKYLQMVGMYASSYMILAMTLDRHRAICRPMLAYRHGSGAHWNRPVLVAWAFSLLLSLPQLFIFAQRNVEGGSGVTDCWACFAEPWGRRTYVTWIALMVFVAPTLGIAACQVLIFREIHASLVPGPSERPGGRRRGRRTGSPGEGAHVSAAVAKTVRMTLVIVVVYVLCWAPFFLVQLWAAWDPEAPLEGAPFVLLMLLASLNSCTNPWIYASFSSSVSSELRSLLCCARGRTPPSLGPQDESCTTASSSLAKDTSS
# Sequence of V1a (P37288 whole entry): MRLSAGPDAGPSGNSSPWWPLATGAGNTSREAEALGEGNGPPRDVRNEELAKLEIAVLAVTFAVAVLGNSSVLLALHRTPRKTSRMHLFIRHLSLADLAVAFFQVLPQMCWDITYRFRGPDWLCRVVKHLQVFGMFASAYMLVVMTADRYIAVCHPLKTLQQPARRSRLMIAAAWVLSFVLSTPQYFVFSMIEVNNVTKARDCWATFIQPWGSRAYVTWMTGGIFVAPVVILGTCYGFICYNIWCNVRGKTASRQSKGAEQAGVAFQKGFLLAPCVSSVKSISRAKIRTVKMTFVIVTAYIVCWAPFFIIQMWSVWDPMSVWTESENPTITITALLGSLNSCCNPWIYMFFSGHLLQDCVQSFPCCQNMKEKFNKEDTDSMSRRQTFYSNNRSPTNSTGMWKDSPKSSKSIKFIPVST
smiles,measurement,setting,value
"O=C(Nc1ccc(C(=O)N2CCC3(C=CCCC3)Cc3ccccc32)cc1)c1ccccc1F (single isomer, unassigned) [Compound 108]",IC50,V1a,0.024 µM
same,IC50,human V2 receptor,0.57 µM
"O=C(Nc1ccc(C(=O)N2CCC3(C=CCCC3)Cc3ccccc32)cc1)c1ccccc1F (single isomer, unassigned) [Compound 109]",IC50,V1a,0.014 µM
same,IC50,human V2 receptor,0.3 µM
"O=CC1=CC2(CC1)CCN(C(=O)c1ccc(NC(=O)c3ccccc3-c3ccccc3)cc1)c1ccccc1C2 (stereo not drawn) [Compound 2, 4-(2-Phenylbenzoyl-4-aminobenzoyl)-3′-(formyl)-4-aza-[6,4]-spiro-[5,6]-benzoundec-2′-ene]",IC50,V1a,0.016 µM
same,IC50,human V2 receptor,0.029 µM
"O=C(O)C1=CC2(CC1)CCN(C(=O)c1ccc(NC(=O)c3ccccc3F)cc1)c1ccccc1C2 (stereo not drawn) [Compound 7, 4-(2-Fluorobenzoyl-4-aminobenzoyl)-3′-(carboxyl)-4-aza-[6,4]-spiro-[5,6]-benzoundec-2′-ene]",Receptor Binding V1a (% Inh. @ concentration in μM),V1a; @ 0.1 μM,43% @ 0.1
same,Receptor Binding V2 (% Inh. @ concentration in μM),human V2 receptor; @ 0.1 μM,15% @ 0.1
O=C(O)CNC(=O)C1=CC2(CC1)CCN(C(=O)c1ccc(NC(=O)c3ccccc3-c3ccccc3)cc1)c1ccccc1C2 (stereo not drawn) [Compound 10],IC50,V1a,0.024 µM
same,IC50,human V2 receptor,0.018 µM
Cc1ccc(F)cc1C(=O)Nc1ccc(C(=O)N2CCC3(C=C(C(=O)NCCO)CC3)Cc3ccccc32)c(Cl)c1 (stereo not drawn) [Compound 11],IC50,V1a,0.028 µM
same,IC50,human V2 receptor,0.01 µM
COC(=O)CNC(=O)C1=CC2(CC1)CCN(C(=O)c1ccc(NC(=O)c3ccccc3-c3ccccc3)cc1)c1ccccc1C2 (stereo not drawn) [Compound 12],IC50,V1a,0.013 µM
same,IC50,human V2 receptor,0.018 µM
N#Cc1ccc(C(=O)N2CCC3(CCCCC3)Cc3ccccc32)cc1 [Compound 24],IC50,V1a,0.8 µM
same,inhibition at 10 µM,human V2 receptor; @ 10 μM,26%
Nc1ccc(C(=O)N2CCC3(CCCCC3)Cc3ccccc32)cc1 [Compound 25],IC50,V1a,10 µM
same,inhibition at 10 µM,human V2 receptor; @ 10 μM,7%
Cc1ccccc1C(=O)Nc1ccc(C(=O)N2CCC3(CCCCC3)Cc3ccccc32)cc1 [Compound 28],IC50,V1a,0.25 µM
same,Receptor Binding V2 (% Inh. @ concentration in μM),human V2 receptor; @ 10 μM,1% @ 10
COc1ccc(C(=O)N2CCC3(CCCCC3=O)Cc3ccccc32)cc1 (stereo not drawn) [Compound 29],IC50,V1a,0.013 µM
same,inhibition at 1 µM,human V2 receptor; @ 1 μM,8%
"O=C(Nc1ccc(C(=O)N2CCC3(CCCCC3=O)Cc3ccccc32)cc1)c1ccccc1-c1ccccc1 (stereo not drawn) [Compound 30, 4-(2-Phenylbenzoyl-4-aminobenzoyl)-4-aza-2′-oxo-[6,5]-spiro-[5,6]-benzododecane]",IC50,V1a,0.035 µM
same,IC50,human V2 receptor,0.033 µM
O=C(Nc1ccc(C(=O)N2CCC3(CCCCC3=O)Cc3ccccc32)cc1)c1ccccc1-c1ccccc1 (stereo not drawn) [Compound 31],IC50,V1a,0.021 µM
same,IC50,human V2 receptor,0.054 µM
O=C(Nc1ccc(C(=O)N2CCC3(CCCCC3O)Cc3ccccc32)cc1)c1ccccc1-c1ccccc1 (stereo not drawn) [Compound 32],IC50,V1a,0.061 µM
same,IC50,human V2 receptor,0.028 µM
O=C(c1ccccc1)N1CCC2(C=CCCC2)Cc2ccccc21 (stereo not drawn) [Compound 34],IC50,V1a,0.65 µM
O=C(c1ccncc1)N1CCC2(C=CCCC2)Cc2ccccc21 (stereo not drawn) [Compound 35],IC50,V1a,1.4 µM
same,IC50,human V2 receptor,> 25 µM
O=C(c1ccc(C(F)(F)F)cc1)N1CCC2(C=CCCC2)Cc2ccccc21 (stereo not drawn) [Compound 38],IC50,V1a,1.6 µM
same,Receptor Binding V2 (% Inh. @ concentration in μM),human V2 receptor; @ 10 μM,35% @ 10
O=C(c1ccc(Cl)cc1)N1CCC2(C=CCCC2)Cc2ccccc21 (stereo not drawn) [Compound 39],IC50,V1a,1.1 µM
same,IC50,human V2 receptor,10 µM
O=C(c1ccc(I)cc1)N1CCC2(C=CCCC2)Cc2ccccc21 (stereo not drawn) [Compound 40],IC50,V1a,0.57 µM
same,Receptor Binding V2 (% Inh. @ concentration in μM),human V2 receptor; @ 10 μM,27% @ 10
Cc1ccc(C(=O)N2CCC3(C=CCCC3)Cc3ccccc32)cc1 (stereo not drawn) [Compound 41],IC50,V1a,0.32 µM
same,Receptor Binding V2 (% Inh. @ concentration in μM),human V2 receptor; @ 10 μM,0% @ 10
NCc1ccc(C(=O)N2CCC3(C=CCCC3)Cc3ccccc32)cc1 (stereo not drawn) [Compound 42],Receptor Binding V1a (% Inh. @ concentration in μM),V1a; @ 10 μM,0% @ 10
same,Receptor Binding V2 (% Inh. @ concentration in μM),human V2 receptor; @ 10 μM,24% @ 10
O=C(c1ccc(F)c(F)c1)N1CCC2(C=CCCC2)Cc2ccccc21 (stereo not drawn) [Compound 43],IC50,V1a,0.68 µM
same,inhibition at 10 µM,human V2 receptor; @ 10 μM,42%
O=C(c1ccc(F)cc1)N1CCC2(C=CCCC2)Cc2ccccc21 (stereo not drawn) [Compound 44],Receptor Binding V2 (% Inh. @ concentration in μM),human V2 receptor; @ 10 μM,42% @ 10
CN(C)c1ccc(C(=O)N2CCC3(C=CCCC3)Cc3ccccc32)cc1 (stereo not drawn) [Compound 45],IC50,V1a,0.11 µM
same,IC50,human V2 receptor,10 µM
O=C(c1cccc(Cl)c1)N1CCC2(C=CCCC2)Cc2ccccc21 (stereo not drawn) [Compound 46],IC50,V1a,3.5 µM
same,inhibition at 10 µM,human V2 receptor; @ 10 μM,33%
O=C(c1cc(F)cc(F)c1)N1CCC2(C=CCCC2)Cc2ccccc21 (stereo not drawn) [Compound 47],IC50,V1a,0.39 µM
same,Receptor Binding V2 (% Inh. @ concentration in μM),human V2 receptor; @ 10 μM,29% @ 10
"O=C(c1ccc([N+](=O)[O-])cc1)N1CCC2(C=CCCC2)Cc2ccccc21 (stereo not drawn) [Compound 49, 4-(4-Nitrobenzoyl)-4-aza-[6,5]-spiro-[5,6]-benzododec-2′-ene]",IC50,V1a,0.38 µM
same,inhibition at 10 µM,human V2 receptor; @ 10 μM,30%
O=C(c1cc(C(F)(F)F)cc(C(F)(F)F)c1)N1CCC2(C=CCCC2)Cc2ccccc21 (stereo not drawn) [Compound 50],Receptor Binding V1a (% Inh. @ concentration in μM),V1a; @ 10 μM,20% @ 10
same,Receptor Binding V2 (% Inh. @ concentration in μM),human V2 receptor; @ 10 μM,26% @ 10
O=C(c1cccc(Br)c1)N1CCC2(C=CCCC2)Cc2ccccc21 (stereo not drawn) [Compound 51],IC50,V1a,5.6 µM
same,inhibition at 10 µM,human V2 receptor; @ 10 μM,33%
N#Cc1cccc(C(=O)N2CCC3(C=CCCC3)Cc3ccccc32)c1 (stereo not drawn) [Compound 52],IC50,V1a,0.53 µM
same,Receptor Binding V2 (% Inh. @ concentration in μM),human V2 receptor; @ 10 μM,28% @ 10
O=C(NCc1ccc(C(=O)N2CCC3(C=CCCC3)Cc3ccccc32)cc1)c1ccccc1 (stereo not drawn) [Compound 55],Receptor Binding V1a (% Inh. @ concentration in μM),V1a; @ 10 μM,0% @ 10
same,Receptor Binding V2 (% Inh. @ concentration in μM),human V2 receptor; @ 10 μM,29% @ 10
O=C(c1cccc(C(F)(F)F)c1)N1CCC2(C=CCCC2)Cc2ccccc21 (stereo not drawn) [Compound 56],IC50,V1a,4.3 µM
same,inhibition at 10 µM,human V2 receptor; @ 10 μM,0%
CC(=O)Nc1ccc(C(=O)N2CCC3(C=CCCC3)Cc3ccccc32)cc1 (stereo not drawn) [Compound 57],IC50,V1a,0.34 µM
same,inhibition at 1 µM,human V2 receptor; @ 1 μM,4%
CN(C)c1ccc(C(=O)N2CCC3(C=CCCC3)Cc3ccccc32)cc1 (stereo not drawn) [Compound 60],IC50,V1a,0.051 µM
same,Receptor Binding V2 (% Inh. @ concentration in μM),human V2 receptor; @ 1 μM,14% @ 1
O=C(Nc1ccccc1)N1CCC2(C=CCCC2)Cc2ccccc21 (stereo not drawn) [Compound 61],Receptor Binding V1a (% Inh. @ concentration in μM),V1a; @ 1 μM,11% @ 1
same,Receptor Binding V2 (% Inh. @ concentration in μM),human V2 receptor; @ 1 μM,3% @ 1
O=C(Nc1ccc(F)cc1)N1CCC2(C=CCCC2)Cc2ccccc21 (stereo not drawn) [Compound 62],Receptor Binding V1a (% Inh. @ concentration in μM),V1a; @ 1 μM,5% @ 1
same,Receptor Binding V2 (% Inh. @ concentration in μM),human V2 receptor; @ 1 μM,4% @ 1
O=C(c1ccccc1-c1ccccc1)N1CCC2(C=CCCC2)Cc2ccccc21 (stereo not drawn) [Compound 64],Receptor Binding V1a (% Inh. @ concentration in μM),V1a; @ 1 μM,1% @ 1
same,Receptor Binding V2 (% Inh. @ concentration in μM),human V2 receptor; @ 1 μM,12% @ 1
"O=C(O)c1ccc(C(=O)N2CCC3(C=CCCC3)Cc3ccccc32)cc1 (stereo not drawn) [Compound 65, 4-(4-Carboxybenzoyl)-4-aza-[6,5]-spiro-[5,6]-benzododec-2′-ene]",inhibition at 1 µM,"V1a; @ 1 μM, read-out: Receptor Binding V1a (% Inh. @ concentration in μM)",8%
same,inhibition at 1 µM,human V2 receptor; @ 1 μM,11%
O=C(Nc1ccc(C(=O)N2CCC3(C=CCCC3)Cc3ccccc32)cc1)c1ccccc1 (stereo not drawn) [Compound 67],IC50,V1a,0.02 µM
same,IC50,human V2 receptor,0.39 µM
Nc1ccc(C(=O)N2CCC3(C=CCCC3)Cc3ccccc32)cc1 (stereo not drawn) [Compound 68],IC50,V1a,0.81 µM
same,inhibition at 1 µM,human V2 receptor; @ 1 μM,3%
Nc1ccc(C(=O)Nc2ccc(C(=O)N3CCC4(C=CCCC4)Cc4ccccc43)cc2)cc1 (stereo not drawn) [Compound 70],IC50,V1a,0.01 µM
same,Receptor Binding V2 (% Inh. @ concentration in μM),human V2 receptor; @ 1 μM,21% @ 1
COc1ccc(C(=O)Nc2ccc(C(=O)N3CCC4(C=CCCC4)Cc4ccccc43)cc2)cc1OC (stereo not drawn) [Compound 97],Receptor Binding V2 (% Inh. @ concentration in μM),human V2 receptor; @ 1 μM,2% @ 1
COc1cc(-n2ccc(C(=O)O)c2)ccc1C(=O)N1CCC2(C=C(C(=O)NCCN(C)C)CC2)Cc2ccccc21 (stereo not drawn) [Compound 200],inhibition at 0.1 µM,V1a; [1],0%
COC(=O)C1=CC2(CC1)CCN(C(=O)c1cc(OC)c(OC)c(OC)c1)c1ccccc1C2 (stereo not drawn) [Compound 203],inhibition at 0.1 µM,V1a; [1],3%
CCOC(=O)Oc1c(OC)cc(C(=O)N2CCC3(C=C(C(=O)OC)CC3)Cc3ccccc32)cc1OC (stereo not drawn) [Compound 204],inhibition at 0.1 µM,V1a; [1],0%
CCCCOc1ccc(C(=O)N2CCC3(C=C(C(=O)OC)CC3)Cc3ccccc32)cc1 (stereo not drawn) [Compound 205],IC50,V1a,0.14 µM
"CCOC(=O)Oc1c(OC)cc(C(=O)N2CCC3(C=CCCC3)Cc3ccccc32)cc1OC (stereo not drawn) [Compound 206, 4-(4-Ethoxycarboyloxy-3,5-dimethoxybenzoyl)-4-aza-[6,5]-spiro-[5,6]-benzododec-2′-ene]",inhibition at 0.1 µM,V1a; [1],9%
Cc1ccn(-c2ccc(C(=O)N3CCC4(C=C(C(=O)N5CCN(C)CC5)CC4)Cc4ccccc43)cc2N(C)C)n1 (stereo not drawn) [Compound 214],inhibition at 0.1 µM,V1a; [1],48%
COC(=O)C1=CC2(CC1)CCN(C(=O)c1ccc(-n3ccc(C(C)=O)c3)c(OC)c1)c1ccccc1C2 (stereo not drawn) [Compound 215],inhibition at 0.1 µM,V1a; [1],64%
COc1cc(C(=O)N2CCC3(C=C(C(=O)N4CCN(C)CC4)CC3)Cc3ccccc32)ccc1-n1ccc(C(C)=O)c1 (stereo not drawn) [Compound 216],inhibition at 0.1 µM,V1a; [1],6%
Cc1ccn(-c2ccc(C(=O)N3CCC4(C=C(C(=O)N5CCN(C)CC5)CC4)Cc4ccccc43)cc2)n1 (stereo not drawn) [Compound 217],inhibition at 0.1 µM,V1a; [1],42%
O=C(O)C1=CC2(CC1)CCN(C(=O)c1ccc(NC(=O)c3cc(F)ccc3F)cc1)c1ccccc1C2 (stereo not drawn) [Compound 219],inhibition at 0.2 µM,"V1a; @ 0.2 μM, read-out: Receptor Binding V1a (% Inh. @ concentration in μM)",48%
CN(C)CCNC(=O)C1=CC2(CC1)CCN(C(=O)c1ccc(NC(=O)c3cc(F)ccc3F)cc1)c1ccccc1C2 (stereo not drawn) [Compound 220],IC50,V1a,0.013 µM
CN(C)CCCNC(=O)C1=CC2(CC1)CCN(C(=O)c1ccc(NC(=O)c3cc(F)ccc3F)cc1)c1ccccc1C2 (stereo not drawn) [Compound 221],IC50,V1a,0.009 µM
